In the Deep4Chem optical property database:
One block for each compound: values may come before it.

Test: photoluminescence quantum yield (fraction); solvent given as SMILES

SMILES: COc1ccc(C2=Cc3ccc4ccccc4[n+]3[B-](F)(F)O2)cc1
photoluminescence quantum yield (in ClC(Cl)Cl): 0.94

SMILES: CCOC(=O)c1cc(C(=O)OCC)c2c(C)ccc(O)c2n1
photoluminescence quantum yield (in CCO): 0.26

SMILES: Oc1cc(-c2cccs2)ccc1-c1nc2ccccc2s1
photoluminescence quantum yield (in CCO): 0.1
photoluminescence quantum yield (in ClCCl): 0.0937
photoluminescence quantum yield (in O): 0.01

SMILES: C/C(=C\c1ccccc1)c1nc2ccccc2o1
photoluminescence quantum yield (in C1CCCCC1): 0.007
photoluminescence quantum yield (in CO): 0.002

SMILES: Cc1cc(C)c(C2=[N+]3C(=Cc4c(C)cc(C)n4[B-]3(F)F)c3ccccc32)[nH]1
photoluminescence quantum yield (in C1CCOC1): 0.06
photoluminescence quantum yield (in CC#N): 0.02
photoluminescence quantum yield (in CCCCCC): 0.85
photoluminescence quantum yield (in CO): 0.03
photoluminescence quantum yield (in Cc1ccccc1): 0.81
photoluminescence quantum yield (in ClCCl): 0.61

SMILES: O=C1CCCC2=C1C(c1ccccc1)c1c(c3ccccc3oc1=O)N2 (stereo not drawn)
photoluminescence quantum yield (in CS(C)=O): 0.41

SMILES: O=S1(=O)c2ccc(-c3ccc4c(c3)c3ccccc3n4-c3ccccc3)cc2C2(c3cc(-c4ccc5c(c4)c4ccccc4n5-c4ccccc4)ccc31)c1cc(-c3ccc4c(c3)c3ccccc3n4-c3ccccc3)ccc1S(=O)(=O)c1ccc(-c3ccc4c(c3)c3ccccc3n4-c3ccccc3)cc12
photoluminescence quantum yield (in CC1CCCO1): 0.83

SMILES: C(=C\c1cc(-c2ccc3ccccc3c2)c(/C=C/c2ccc(N(c3ccccc3)c3ccccc3)cc2)cc1-c1ccc2ccccc2c1)/c1ccc(N(c2ccccc2)c2ccccc2)cc1
photoluminescence quantum yield (in ClCCl): 0.59

SMILES: CN(C)c1ccc(/C=C/c2nc3ccc(N(C)C)cc3oc2=O)cc1
photoluminescence quantum yield (in C1CCCCC1): 0.57
photoluminescence quantum yield (in C1COCCO1): 0.59
photoluminescence quantum yield (in CC#N): 0.21
photoluminescence quantum yield (in CC(C)=O): 0.36
photoluminescence quantum yield (in CC(O)CO): 0.024
photoluminescence quantum yield (in CCCCCCC): 0.56
photoluminescence quantum yield (in CCO): 0.016
photoluminescence quantum yield (in CCOC(C)=O): 0.52
photoluminescence quantum yield (in CN(C)C=O): 0.22
photoluminescence quantum yield (in CS(C)=O): 0.04
photoluminescence quantum yield (in Cc1ccccc1): 0.57
photoluminescence quantum yield (in ClC(Cl)Cl): 0.52
photoluminescence quantum yield (in ClCCl): 0.55
photoluminescence quantum yield (in OCC(O)CO): 0.019

SMILES: CN(c1ccccc1)c1ccc(/C=C/c2ccccc2)cc1
photoluminescence quantum yield (in CC#N): 0.31
photoluminescence quantum yield (in CCCCCC): 0.64

SMILES: CC1(C)CC(/C=C/c2ccc(-n3cccn3)cc2)=CC(=C(C#N)C#N)C1
photoluminescence quantum yield (in CCO): 0.0001

SMILES: c1cc2ccc3cc4[nH]c(-c5cc6c(cc7ccc8cccc9ccc6c7c89)[nH]5)cc4c4ccc(c1)c2c34
photoluminescence quantum yield (in C1CCOC1): 0.5

Other lines, results leading:

photoluminescence quantum yield (in CO): 0.05
photoluminescence quantum yield (in CS(C)=O): 0.02
photoluminescence quantum yield (in O): 0.02
SMILES: CCCN1/C(=C/C=C(/C=C/c2sc3ccccc3[n+]2CCC)c2ccc([N+](=O)[O-])cc2)Sc2ccccc21

photoluminescence quantum yield (in ClCCl): 0.79
SMILES: c1ccc(CSc2c3ccc(=[N+]4CCCCC4)cc-3oc3cc(N4CCCCC4)ccc23)cc1

photoluminescence quantum yield (in C1CCOC1): 0.37
SMILES: c1ccc(-n2c3c(c4c2-c2ccccc2C42c4ccccc4-c4ccccc42)C2(c4ccccc4-c4ccccc42)c2ccccc2-3)cc1

photoluminescence quantum yield (in Cc1ccccc1-c1cccc(Oc2cc3c4c(c2)Oc2cc(-c5ccccc5C)ccc2B4c2ccc(-c4ccccc4C)cc2O3)c1): 0.889
photoluminescence quantum yield (in ClCCl): 0.79
SMILES: Cc1cc(C)c(B2c3cc(C)ccc3N3c4ccc(C)cc4B(c4c(C)cc(C)cc4C)c4cc(C)cc2c43)c(C)c1

photoluminescence quantum yield (in ClCCl): 0.08
SMILES: c1ccc2c(c1)sc1c3ccccc3c3ncncc3c21

photoluminescence quantum yield (in CCCCCC): 0.13
SMILES: CC(C)[Si](C#Cc1c2nsnc2c(C#C[Si](C(C)C)(C(C)C)C(C)C)c2nc3c(ccc4cc5ccccc5cc43)nc12)(C(C)C)C(C)C

photoluminescence quantum yield (in ClCCl): 0.99
SMILES: F[B-]1(F)n2c(Oc3ccccc3)c(Cl)c3c2C(=C2C(Br)=C(Cl)C(Oc4ccccc4)=[N+]21)Oc1ccccc1-3

photoluminescence quantum yield (in CCCCCC): 0.69
photoluminescence quantum yield (in CCCCCCCCO): 0.45
photoluminescence quantum yield (in CCOC(C)=O): 0.55
photoluminescence quantum yield (in CN(C)C=O): 0.4
photoluminescence quantum yield (in ClCCl): 0.44
SMILES: CC1=CC(C)=[N+]2C1=Cc1c3ccccc3c(C#Cc3cccs3)n1[B-]2(F)F

photoluminescence quantum yield (in C1CCCCC1): 0.12
photoluminescence quantum yield (in CC#N): 0.02
photoluminescence quantum yield (in ClC(Cl)Cl): 0.08
SMILES: c1cc2ccc1CCCc1cc3c(cc1CCCc1ccc(c4nsnc14)CCC3)CCC2

photoluminescence quantum yield (in CC#N): 0.71
SMILES: N#Cc1nn(-c2ccccc2C(F)(F)F)nc1N1CCCC1
